Patent publication US20230416196A1, “DIMER OF BIGUANIDINES AND THEIR THERAPEUTIC USES” (INSTITUT CURIE, priority 2020, published 2023)

Experiments:
[1] = system: biopsy-derived organoids of PDAC; assay: Chemograms on biopsy-derived organoids of pancreatic ductal adenocarcinoma; assay type: cell-based, human; conditions: 72 h, CellTiter-Glo 3D; FIG. 9
Excerpt: Biopsy-derived pancreatic organoid (BDPO) generation. BDPOs were obtained from endoscopic ultrasound-guided fine-needle aspirations (EUS-FNA) from patients with PDAC included under the PaCaOmics clinical trial (ClinicalTrials.gov: NCT01692873) after approval by the Paoli-Calmettes hospital ethics committee and following patient informed consent. Cultures were established as previously described. Briefly, PDAC biopsies were slightly digested with the Tumor Dissociation Kit (Miltenyi Biotec) at 37° C. for 5 minutes. The pancreatic tissue slurry was transferred into a tissue strainer 100 μm and was placed into 12-well plates coated with 150 μL GFR matrigel (Corning, Boulogne-Billancourt, France). […]
Chemograms on BDPO. […] 24 hours later, one plate was used directly for RNA preparation (Time 0 transcriptome) and on the other the medium was supplemented with increasing concentrations of each drug, 72 hours later cell viability was measured with CellTiter-Glo 3D (Promega) reagent quantified using the plate reader Tristar LB941 (Berthold Technologies). Values were normalized and expressed as the percentage of the control (vehicle), which represents 100% of normalized fluorescence. […]

U937 cells = assay: Cell viability assay (CellTiter-Blue) on lymphoma cell line U937; assay type: cell-based; conditions: Homo sapiens, U-937, 72 h treatment
Procedure: Cell culture. U-937 cells were grown in an incubator equilibrated at 37° C. with 5% CO2, grown to confluence and split with Trypsin/EDTA (Gibco, […]01) once or twice a week according to confluence. U-937 (ATCC, HTB-132) were cultured in RPMI 1640 GLUTAMAX (ThermoFisher Scientific, 61870044) supplemented with 10% Fetal Bovine Serum (FBS, Gibco, 10270-106) and Penicillin-Streptomycin mixture (BioWhittaker/Lonza, DE17-602E). […] Peripheral blood samples were collected from distinct healthy donors (Etablissement Français du Sang). Pan monocytes were isolated by negative magnetic sorting using microbeads according to the manufacturer's instructions (Miltenyi Biotec, 130-096-537), and cultured in RPMI 1640 supplemented with glutamine (Thermo Fisher Scientific, 61870010), 10% fetal bovine serum and exposed to granulocyte-macrophage colony-stimulating factor (GM-CSF, Miltenyi Biotec, 130-093-866, 100 ng/mL) to induce differentiation into macrophages (MDM). […] Cell viability assay (IC50). Cell viability assay was carried out by plating 1000 cells/well in 96-well plates. Cells were treated for 72 h in a range between to 25 nM and […] using serial dilutions. The inventors followed the manufacturer's protocol. In brief, CellTiter-Blue® reagent (G8081, Promega) was added after 72 h treatment and cells were incubated for 3 h before recording fluorescence intensities (λex. 560/20 nm; λem. 590/10 nm) using a Perkin Elmer Wallac 1420 Victor2 Microplate Reader.

## N=C(N)NC(=N)NCCCCCCCCCCCCNC(=N)NC(=N)N [LCC-12, lipophilic copper clamp C12]
[1]
  efficacy (IC50) on biopsy-derived organoids of PDAC: low micromolar range
U937 cells
  IC50: 2 µM
